# Reference: publication PMC8496750, “Identification of the organic anion transporting polypeptides responsible for the hepatic uptake of the major metabolite of epyrifenacil, S‐3100‐CA, in mice” (Pharmacology Research & Perspectives, 2021)
# What was measured:
# Conditions in all cases: 10‐min incubation
# [1] = molecular target: T1, human OATP1B3 (Homo sapiens, UniProt Q9NPD5); test: Uptake assay for radiolabeled substrates, human OATP1B3 expressing 293FT cells; type: in vitro ADME
# T1 construct: expressed in transfected cells; host or cells: 293FT cells
# T1 sequence (Q9NPD5 1-702): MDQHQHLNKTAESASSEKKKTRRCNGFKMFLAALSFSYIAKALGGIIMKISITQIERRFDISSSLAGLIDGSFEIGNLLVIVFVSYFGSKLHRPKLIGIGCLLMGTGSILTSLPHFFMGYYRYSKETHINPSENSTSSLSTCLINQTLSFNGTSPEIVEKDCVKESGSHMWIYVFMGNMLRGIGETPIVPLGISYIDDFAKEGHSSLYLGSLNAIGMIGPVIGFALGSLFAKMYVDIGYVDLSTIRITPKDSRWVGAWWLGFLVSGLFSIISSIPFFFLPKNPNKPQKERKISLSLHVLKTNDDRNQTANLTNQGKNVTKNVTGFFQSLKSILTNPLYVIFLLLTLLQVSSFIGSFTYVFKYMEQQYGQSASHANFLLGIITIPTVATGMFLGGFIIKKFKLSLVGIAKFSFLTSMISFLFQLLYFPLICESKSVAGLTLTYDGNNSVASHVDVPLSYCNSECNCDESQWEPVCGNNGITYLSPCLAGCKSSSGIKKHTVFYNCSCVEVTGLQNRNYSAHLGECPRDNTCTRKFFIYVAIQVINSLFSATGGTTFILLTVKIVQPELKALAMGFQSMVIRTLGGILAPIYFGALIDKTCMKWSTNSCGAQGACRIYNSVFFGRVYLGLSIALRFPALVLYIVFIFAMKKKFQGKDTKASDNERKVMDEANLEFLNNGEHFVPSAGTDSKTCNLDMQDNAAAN
# Experimental: (§1) 293FT cells were purchased from Thermo Fisher Scientific, Inc.. The cells were grown in Dulbecco's modified Eagle medium (supplemented with 4.5 g/L glucose and 2 mM L‐glutamine) at 37°C, 5% CO2, and 95% humidity. The cells were passaged 3 times per week by harvesting cells using trypsin and plating at a density of 1.0 × 10^4 cells/cm^2 in a 10 cm cell culture plate for maintenance culture. The 293FT cells were detached using trypsin and re‐seeded at a density of 2.5 × 10^4 cells/cm^2 in BioCoat™ Collagen I 6‐well plates (Corning Inc.) for transfection and then treated with 1.2 μg of plasmid vector and 3.2 μl of Lipofectamine™ 2000 Transfection Reagent (Thermo Fisher Scientific, Inc.) according to the manufacturer's instructions. After a 3‐h treatment, the transfection medium was replaced with a fresh cell culture medium and incubated at 37°C with 95% humidity and 5% CO2 until ready for the assay.
# (§2) Transport experiments were conducted approximately 24 h post‐transfection. The experiments were initiated by aspirating culture medium and addition of pre‐warmed radiolabeled substrate solution (final 1.0% of acetonitrile or 0.9% of ethanol in phosphate‐buffered saline (PBS[−])) to each well. After a 10‐min incubation, cells were washed twice with 1 ml of ice‐cold PBS(−) and lysed with 700 μl of 1.0 M NaOH for 3 h or more at room temperature. The lysate was transferred to a 1.5‐ml tube, and neutralized with 350 μl of 2.0 M HCl and 350 μl of 2.0% sodium dodecyl sulfate (SDS) solution. From the lysate, 1.0 ml was transferred to a vial containing 10 ml of Emulsifier Scintillator Plus to measure the radioactivity in the LSC. The protein concentration of the cell lysate was also measured using a Pierce™ BCA Protein Assay Kit (Thermo Fisher Scientific, Inc.), which was used to normalize, according to the cell number, the radioactivity in the cell lysate extract. The protein assay was performed in duplicate. Each sample type was assayed in triplicate wells, and each run was performed twice. When the difference in mean uptake between OATP expressing cells and mock cells was more than 2 times, the OATP was judged to be involved in transportation of the substrate. […] Each sample type was assayed in triplicate wells.
# [2] = molecular target: T2, mouse Oatp1a4 (Mus musculus, UniProt Q9EP96); test: Uptake assay for radiolabeled substrates, mouse Oatp1a4 expressing 293FT cells
# T2 sequence (Q9EP96 1-670): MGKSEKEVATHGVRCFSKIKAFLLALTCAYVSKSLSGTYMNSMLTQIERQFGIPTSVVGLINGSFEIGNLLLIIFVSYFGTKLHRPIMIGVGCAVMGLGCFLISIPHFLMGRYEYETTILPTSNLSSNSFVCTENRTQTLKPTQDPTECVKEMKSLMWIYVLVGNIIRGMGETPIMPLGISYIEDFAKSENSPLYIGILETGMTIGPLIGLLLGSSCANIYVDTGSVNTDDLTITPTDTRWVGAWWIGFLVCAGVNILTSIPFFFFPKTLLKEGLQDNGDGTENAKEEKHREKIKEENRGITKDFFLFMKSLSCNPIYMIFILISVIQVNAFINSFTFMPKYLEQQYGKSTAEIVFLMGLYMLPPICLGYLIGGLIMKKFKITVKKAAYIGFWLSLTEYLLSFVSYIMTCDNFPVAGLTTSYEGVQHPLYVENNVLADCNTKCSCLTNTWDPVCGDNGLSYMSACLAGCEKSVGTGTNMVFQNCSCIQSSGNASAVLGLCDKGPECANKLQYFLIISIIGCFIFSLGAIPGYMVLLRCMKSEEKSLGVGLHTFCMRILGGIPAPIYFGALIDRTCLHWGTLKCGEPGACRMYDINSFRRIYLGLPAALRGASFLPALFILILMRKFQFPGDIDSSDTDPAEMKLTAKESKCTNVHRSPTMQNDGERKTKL
# Experimental: as §1, §2
# [3] = molecular target: T3, mouse Oatp2b1 (Mus musculus, UniProt Q8BXB6); test: Uptake assay for radiolabeled substrates, mouse Oatp2b1 expressing 293FT cells
# T3 sequence (Q8BXB6 1-683): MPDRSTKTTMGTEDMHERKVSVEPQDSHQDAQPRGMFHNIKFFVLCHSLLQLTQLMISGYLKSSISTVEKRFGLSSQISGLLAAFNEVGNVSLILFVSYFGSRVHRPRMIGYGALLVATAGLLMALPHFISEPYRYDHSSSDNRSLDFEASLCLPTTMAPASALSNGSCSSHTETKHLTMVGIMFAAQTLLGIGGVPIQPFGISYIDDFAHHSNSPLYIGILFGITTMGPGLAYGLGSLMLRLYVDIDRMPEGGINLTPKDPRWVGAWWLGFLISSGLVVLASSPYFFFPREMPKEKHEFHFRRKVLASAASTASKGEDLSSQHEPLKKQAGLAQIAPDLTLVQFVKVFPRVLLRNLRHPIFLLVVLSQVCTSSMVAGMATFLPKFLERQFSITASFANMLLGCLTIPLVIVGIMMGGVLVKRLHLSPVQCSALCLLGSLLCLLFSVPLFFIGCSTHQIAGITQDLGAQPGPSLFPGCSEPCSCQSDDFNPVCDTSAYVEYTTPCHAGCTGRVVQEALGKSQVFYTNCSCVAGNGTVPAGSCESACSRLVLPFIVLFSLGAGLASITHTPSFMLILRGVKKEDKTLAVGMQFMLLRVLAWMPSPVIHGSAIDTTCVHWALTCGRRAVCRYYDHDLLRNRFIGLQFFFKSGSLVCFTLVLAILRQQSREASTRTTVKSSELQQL
# Experimental: as §1, §2
compound,measurement,setting,value
"C[C@]12CC[C@@H]3c4ccc(OS(=O)(=O)O)cc4CC[C@H]3[C@@H]1CCC2=O [E3S, Estrone 3‐sulfate]",Ratio of uptake amount relative to the uptake into mock cells,[1]; Run_1,2.7
same,Ratio of uptake amount relative to the uptake into mock cells,[1]; Run_2,3.3
same,Ratio of uptake amount relative to the uptake into mock cells,[2]; Run_1,1.1
same,Ratio of uptake amount relative to the uptake into mock cells,[2]; Run_2,1.1
same,Ratio of uptake amount relative to the uptake into mock cells,[3]; Run_1,2.9
same,Ratio of uptake amount relative to the uptake into mock cells,[3]; Run_2,3.9
"C[C@]12CC[C@@H]3c4ccc(O)cc4CC[C@H]3[C@@H]1CC[C@@H]2O[C@@H]1O[C@H](C(=O)O)[C@@H](O)[C@H](O)[C@H]1O [E217βG, Estradiol 17β‐D‐glucuronide]",Ratio of uptake amount relative to the uptake into mock cells,[1]; Run_1,19.3
same,Ratio of uptake amount relative to the uptake into mock cells,[1]; Run_2,12.9
same,Ratio of uptake amount relative to the uptake into mock cells,[2]; Run_1,3.7
same,Ratio of uptake amount relative to the uptake into mock cells,[2]; Run_2,3.3
same,Ratio of uptake amount relative to the uptake into mock cells,[3]; Run_1,4.1
same,Ratio of uptake amount relative to the uptake into mock cells,[3]; Run_2,2.0
Cn1c(C(F)(F)F)cc(=O)n(-c2cc(Oc3cccnc3OCC(=O)O)c(Cl)cc2F)c1=O [S‐3100‐CA],Ratio of uptake amount relative to the uptake into mock cells,[1]; Run_1,3.1
same,Ratio of uptake amount relative to the uptake into mock cells,[1]; Run_2,5.1
same,Ratio of uptake amount relative to the uptake into mock cells,[2]; Run_1,8.1
same,Ratio of uptake amount relative to the uptake into mock cells,[2]; Run_2,4.2
same,Ratio of uptake amount relative to the uptake into mock cells,[3]; Run_1,2.4
same,Ratio of uptake amount relative to the uptake into mock cells,[3]; Run_2,4.0
